Values quoted from earlier work in patent US20160213008A1, “ULTRASONIC MICRO-DROPLET RELEASE OF MATRIX BOUND FOOD DERIVED ANTIMICROBIALS” (priority 2015, published 2016).

Details: Cavallito and colleagues 1944

C=CCSSC=CC[S+]([O-])CC=C (mixture of isomers) [Ajoene]
antibacterial and antifungal / antimicrobial activity: shows antimicrobial properties

C=CCS[S+]([O-])CC=C (centres unmarked) [allicin]
antibacterial and antifungal / antimicrobial activity: attributable
